Reference: patent publication EP3169154B1, “DILUENT FOR SEMEN PRESERVATION” (Politécnico Colombiano Jaime Isaza Cadavid, priority 2014, dated 2016)

What was measured:
interleukin-1β = conditions: cited from earlier work
[1] = test system: carrageenan-induced foot inflammation; conditions: some rodents; cited from earlier work
semen ejaculates [2] = assay: Lipid peroxidation inhibition in semen ejaculates; type: cell-based; conditions: for inhibition at 20 µM: 20 µM in diluent of Example 1; for inhibition at 40 µM: 40 µM in diluent of Example 1; for inhibition at 50 µM: 50 µM in diluent of Example 1; for inhibition at 60 µM: 60 µM in diluent of Example 1; for inhibition at 80 µM: 80 µM in diluent of Example 1; for inhibition at 100 µM: 100 µM in diluent of Example 1
Protocol: (§1) Two diluents are prepared in accordance with Example 1, adding isoespintanol to one of them, and thymol to the other. In order to determine the cytoprotective (antioxidant) potential of each, the effects of adding different concentrations of these compounds to semen ejaculates were studied. The inhibition of ROS production and the reduction of lipid peroxidation were assessed, thereby determining the effective range as well as the maximum inhibitory concentration of thymol and isoespintanol (Tables 2 and 3). Table 2. Results of the inhibition of ROS production

semen ejaculates [3] = assay: Inhibition of ROS production in semen ejaculates; type: cell-based; conditions: for inhibition at 20 µM: 20 µM in diluent of Example 1; for inhibition at 40 µM: 40 µM in diluent of Example 1; for inhibition at 50 µM: 50 µM in diluent of Example 1; for inhibition at 60 µM: 60 µM in diluent of Example 1; for inhibition at 80 µM: 80 µM in diluent of Example 1; for inhibition at 100 µM: 100 µM in diluent of Example 1
Protocol: as §1

For `COc1cc(C)c(OC)c(O)c1C(C)C` [isoespintanol, 2-isopropyl-3,6-dimethoxy-5-methylphenol], the “reduction of interleukin-1β production” value (interleukin-1β) is listed as ≤ 72%, the “reduction of carrageenan-induced foot inflammation” value [1] is listed as 43% and the inhibition at 20 µM (semen ejaculates [2]) is listed as 21.1%. For the same compound, the inhibition at 40 µM (semen ejaculates [2]) was 29.9%, the inhibition at 50 µM (semen ejaculates [2]) was 29.4% and the inhibition at 60 µM (semen ejaculates [2]) was 51.1%. It also gave an inhibition at 80 µM (semen ejaculates [2]) of 42.1%, an inhibition at 100 µM (semen ejaculates [2]) of 29.8% and an inhibition at 20 µM (semen ejaculates [3]) of 16%. The inhibition at 40 µM (semen ejaculates [3]) was 24.2%, the inhibition at 50 µM (semen ejaculates [3]) was 34.5% and the inhibition at 60 µM (semen ejaculates [3]) was 16.9%. It also gave an inhibition at 80 µM (semen ejaculates [3]) of 6.1% and an inhibition at 100 µM (semen ejaculates [3]) of 5.6%.

With `Cc1ccc(C(C)C)c(O)c1` [thymol, 2-isopropyl-5-methylphenol, reference compound] the inhibition at 20 µM (semen ejaculates [2]) was 48.1%, the inhibition at 40 µM (semen ejaculates [2]) was 47.7% and the inhibition at 50 µM (semen ejaculates [2]) was 40.8%. For the same compound, the inhibition at 60 µM (semen ejaculates [2]) was 36.6%, the inhibition at 80 µM (semen ejaculates [2]) was 47% and the inhibition at 100 µM (semen ejaculates [2]) was 28.3%. For the same compound, the inhibition at 20 µM (semen ejaculates [3]) was 11.7%, the inhibition at 40 µM (semen ejaculates [3]) was 12.3% and the inhibition at 50 µM (semen ejaculates [3]) was 51.2%. The inhibition at 60 µM (semen ejaculates [3]) was 26%, the inhibition at 80 µM (semen ejaculates [3]) was 21% and the inhibition at 100 µM (semen ejaculates [3]) was 27.6%.
